This passage reports Kd, ΔTm and DC50 results from patent US20250032625A1, “HETEROBIFUNCTIONAL MOLECULES AS TEAD INHIBITORS” (Merck Patent GmbH, priority 2021, published 2025).

Each structure is given as a SMILES string. pKd: −log10 of the molar value. Like-named read-outs stand apart in the source and are kept apart here.

The target in assay [1] is T1, hsTEAD1 (209-426) (Homo sapiens (Human), UniProt P28347). The assay is described as follows: Surface Plasmon Resonance (SPR) assay. The class given is binding. As to conditions: Biacore 4000, 15° C., 1:1 Langmuir model, read-out: KD TEAD1 (209-426). The procedure:
The kinetic and affinity parameters of protein-exemplary compound interactions were evaluated by SPR. hsTEAD1 (209-426) was immobilized onto a CM7 (Series S) sensor chip via the standard amine coupling procedure, at 15° C. Prior to immobilization, the carboxymethylated surface of the chip was activated with 400 mM 1-ethyl-3-(3-dimethylaminopropyl)-carbodiimide and 100 mM N-hydroxysuccinimide for 10 min. hsTEAD1 (209-426) was diluted to 11 μg/mL in 10 mM Bis-Tris at pH 6.5 and immobilized on the activated surface chip for 8 and 10 min, in order to reach 6000 to 9000 response units (RU). The remaining activated carboxymethylated groups were blocked with a 7 min injection of 1 M ethanolamine pH 8.5 after which the surface chip was washed with 0.5% (w/v) sodium dodecyl sulphate and 50 mM glycine. HBS-N, which consists of 10 mM HEPES pH 7.4 and 150 mM NaCl, was used as the background buffer during immobilization. Exemplary compounds were prediluted in DMSO, diluted 1:50 in running buffer (20 mM Tris pH 7.4, 150 mM NaCl, 1 mM DTT, 5 mM MgCl2, 0.1 mM EGTA, 0.05% CHAPS) and injected at ten different concentrations using two-fold dilution series, from 100 μM to 0.2 μM. A DMSO solvent correction (1%-3%) was performed to account for variations in bulk signal and to achieve high-quality data. Interaction analysis cycles consisted of a 240 sec sample injection (30 μL/min; association phase) followed by 600 sec of buffer flow (dissociation phase).
All sensorgrams were processed by first subtracting the binding response recorded from the control surface (reference spot), followed by subtracting of the buffer blank injection from the reaction spot. All datasets were fit to a simple 1:1 Langmuir interaction model to determine the kinetic rate constants, KD. Experiments were performed on a Biacore 4000 (Cytiva, Uppsala, Sweden) at 15° C. and the interactions were evaluated using the provided Biacore 4000 evaluation software.

The target in assay [2] is T1, hsTEAD1 (209-426). The assay is described as follows: Thermal shift measurement / Differential Scanning Fluorimetry (DSF). It is filed as binding. As to conditions: 100 uM compound, 2 hours at 4° C., triplicates; read-out: ΔTm TEAD1 (209-426). The procedure: (§1) Interaction of exemplary compounds with the various TEAD isoforms TEAD1, TEAD2, TEAD3, and TEAD4 was performed in a DSF assay. YAP-binding domains (YBD) of the four isoforms were subcloned and heterogeneously expressed in E. coli as a host. Initial purification was perfomed by using affinity tags, which got removed by overnight protease treatment. Further purification of TEAD isoforms was performed by Size-Exclusion Chromatography (SEC). Target protein containing fractions were pooled, concentrated with an Amicon (10 KDa MWCO) and quantified using the Bradford assay. Exemplary compound testing in the DSF assay for determining the shift of the TEAD isoform melting temperatures has been performed as described below: DSF was performed in MicroAmpTM EnduraPlateTM Optical 96-Well Clear Reaction Plates (Applied Biosystems, Life Technologies, California, USA) using a QuantStudio 7 Flex Real-Time PCR System (Applied Biosystems). Protein samples were briefly centrifuged before preparation. The final reaction mixture (20 μL of total volume) contained 11.8 μM of […]1 (209-426), 7.3 μM of […]2 (217-447), 7.9 μM of […]3 (216-435) or 11.7 μM of […]4 (217-424), and 2 or 4-fold of Protein Thermal ShiftTM Dye (Applied Biosystems) diluted in protein buffer-20 mM Tris pH 8.0, 150 mM NaCl (+0.5 mM TCEP for TEAD1 experiments). Prior to the addition of the dye, proteins were incubated with either 1 μL DMSO 100% (apo) or 100 uM of each exemplary compound (1 μL at 2 mM in 100% DMSO added to the […] reaction mixture) for 2 hours at 4° C. The melting curve data was recorded from 25 to 90° C. with an increment rate of 0.016° C.s^-1. Excitation and emission filters were applied for Protein Thermal ShiftTM Dye (470 nm and 520 nm, respectively) and for ROX reference dye (580 nm and 623 nm, respectively). The melting temperatures (Tm) were obtained by calculating the midpoint of each transition, using the Protein Thermal Shift SoftwareTM version 1.3. The thermal stability effect of each compound (ΔTm) was calculated by subtracting the calculated Tm in presence and absence (apo) of compound. All samples were tested in triplicates.
(In general: DSF heats the sample and reads unfolding from a dye or from intrinsic fluorescence.)

In another assay the target is hsTEAD3 (216-435) (Homo sapiens (Human), UniProt Q99594). The description is as above. It is filed as binding. As to conditions: 100 uM compound, 2 hours at 4° C., triplicates; read-out: ΔTm TEAD3 216-435. The procedure:
as §1

The next assay addresses hsTEAD2 (217-447) (Homo sapiens (Human), UniProt Q15562). The assay is described as above. The class given is binding. As to conditions: 100 uM compound, 2 hours at 4° C., triplicates; read-out: ΔTm TEAD2 (217-447). The procedure:
as §1

For the next assay, the target named is hsTEAD4 (217-424) (Homo sapiens (Human), UniProt Q15561). The description is as above. As to conditions: 100 uM compound, 2 hours at 4° C., triplicates; read-out: ΔTm TEAD4 217-434. It is filed as binding. The procedure:
as §1

The next assay addresses TEAD1 in NCI-H226 cells (Homo sapiens (Human), UniProt P28347). The assay is described as follows: TEAD degradation in NCI-H226 cell line (immunofluorescence). It is filed as cell-based. Summed up:
(§2)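 SK-HEP1 and NCI-H226 cells were treated in duplicate for 16 or 24 h at 37 °C with compound (10 points, 1:3, top 30 µM final). After fixation, TEAD1 was immunostained with anti-TEF1 and per-cell fluorescence quantified by high-content imaging. DC50 from curve fitting.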

The next assay deals with TEAD1 in SK-HEP1 cells (Homo sapiens (Human), UniProt P28347). The assay is described as follows: TEAD degradation in SK-HEP1 cell line (immunofluorescence). It is filed as cell-based. Summed up:
as §2

Where [3] appears, read: 16 h incubation, read-out: DC50 NCI-H226 16 h.
Setting [4] is: 24 h incubation, read-out: DC50 NCI-H226 24 h.
Where [5] appears, read: 24 h incubation, read-out: DC50 SK-HEP1 24 h.
[6] abbreviates: 24 hours, ranges, read-out: DC50 SK-HEP1.
The mark [7] stands for this setting: 24 hours, ranges, read-out: DC50 NCI-H226.

Chain of hsTEAD2 (217-447) (Q15562 217-447): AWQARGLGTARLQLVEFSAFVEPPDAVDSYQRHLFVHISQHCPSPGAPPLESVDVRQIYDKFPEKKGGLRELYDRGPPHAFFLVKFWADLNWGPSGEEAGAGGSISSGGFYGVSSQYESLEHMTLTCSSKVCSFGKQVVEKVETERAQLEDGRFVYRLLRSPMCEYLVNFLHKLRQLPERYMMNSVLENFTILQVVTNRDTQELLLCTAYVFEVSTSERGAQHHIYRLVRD
Chain of hsTEAD3 (216-435) (Q99594 216-435): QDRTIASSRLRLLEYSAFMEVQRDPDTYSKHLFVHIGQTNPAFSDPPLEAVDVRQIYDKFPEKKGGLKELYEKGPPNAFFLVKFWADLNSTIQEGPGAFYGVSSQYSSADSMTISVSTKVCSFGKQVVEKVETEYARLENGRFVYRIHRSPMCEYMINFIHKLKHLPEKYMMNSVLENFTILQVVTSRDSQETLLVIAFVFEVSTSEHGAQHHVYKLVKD
Chain of hsTEAD4 (217-424) (Q15561 217-434): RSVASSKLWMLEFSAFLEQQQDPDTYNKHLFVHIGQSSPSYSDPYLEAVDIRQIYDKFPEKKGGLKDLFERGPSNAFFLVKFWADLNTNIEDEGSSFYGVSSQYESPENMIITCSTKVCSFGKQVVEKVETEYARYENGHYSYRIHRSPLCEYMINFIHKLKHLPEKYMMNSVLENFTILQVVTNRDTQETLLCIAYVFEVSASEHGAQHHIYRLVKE
T1 sequence (P28347 209-426): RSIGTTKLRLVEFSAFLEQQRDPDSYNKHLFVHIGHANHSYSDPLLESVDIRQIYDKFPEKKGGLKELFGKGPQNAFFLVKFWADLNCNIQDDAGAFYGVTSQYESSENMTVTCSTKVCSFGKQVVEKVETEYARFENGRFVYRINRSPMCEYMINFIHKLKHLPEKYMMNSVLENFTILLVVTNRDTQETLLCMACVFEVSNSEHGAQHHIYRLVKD
Chain of TEAD1 in SK-HEP1 cells (P28347 whole entry): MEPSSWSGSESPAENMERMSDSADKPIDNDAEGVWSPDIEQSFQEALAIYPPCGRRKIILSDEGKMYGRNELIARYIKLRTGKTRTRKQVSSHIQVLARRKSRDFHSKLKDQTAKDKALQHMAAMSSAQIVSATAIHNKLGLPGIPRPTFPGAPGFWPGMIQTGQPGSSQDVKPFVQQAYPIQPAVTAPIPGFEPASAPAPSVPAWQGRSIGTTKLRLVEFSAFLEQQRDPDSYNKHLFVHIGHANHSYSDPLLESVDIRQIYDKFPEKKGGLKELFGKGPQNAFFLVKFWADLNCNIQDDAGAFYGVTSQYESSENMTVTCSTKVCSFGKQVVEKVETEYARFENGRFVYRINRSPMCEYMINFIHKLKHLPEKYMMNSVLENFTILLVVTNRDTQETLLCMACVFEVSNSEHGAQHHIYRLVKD
Chain of TEAD1 in NCI-H226 cells (P28347 whole entry): as above

As to `Cn1cc2c3cc(C(=O)NCCOCCOCCNC(=O)COCCOCCOCCOCCOCC(=O)Nc4cccc5c4C(=O)N(C4CCC(=O)NC4=O)C5=O)ccc3n(-c3ccc(C(F)(F)F)cc3)c2n1` (stereo not shown) [Compound 1, N′-[2-(2,6-dioxopiperidin-3-yl)-1,3-dioxo-2,3-dihydro-1H-isoindol-4-yl]-N-(2-{2-[2-({2-methyl-8-[4-(trifluoromethyl)phenyl]-2H,8H-pyrazolo[3,4-b]indol-5-yl}formamido)ethoxy]ethoxy}ethyl)-3,6,9,12,15-pentaoxaheptadecanediamide], the pKd on hsTEAD1 (209-426) [1] was 5.73. Besides, the ΔTm at 100 µM on hsTEAD1 (209-426) [2] was 4.7 °C; on hsTEAD3 (216-435), 0 °C; on hsTEAD2 (217-447) it was 0 °C.
With `Cn1cc2c3cc(C(=O)NCCOCCOCCNC(=O)COCCOCCOCC(=O)Nc4cccc5c4C(=O)N(C4CCC(=O)NC4=O)C5=O)ccc3n(-c3ccc(C(F)(F)F)cc3)c2n1` (stereo not shown) [Compound 2, 2-{2-[2-({[2-(2,6-dioxopiperidin-3-yl)-1,3-dioxo-2,3-dihydro-1H-isoindol-4-yl]carbamoyl}methoxy)ethoxy]ethoxy}-N-(2-{2-[2-({2-methyl-8-[4-(trifluoromethyl)phenyl]-2H,8H-pyrazolo[3,4-b]indol-5-yl}formamido)ethoxy]ethoxy}ethyl)acetamide], at hsTEAD1 (209-426) [1], the pKd is 5.82. In addition, the ΔTm at 100 µM on hsTEAD4 (217-424) stood at 0 °C; at hsTEAD1 (209-426) [2] it was 4.1 °C; at hsTEAD3 (216-435), 1.3 °C; on hsTEAD2 (217-447), 0.7 °C.
`Cc1ncsc1-c1ccc(CNC(=O)[C@@H]2C[C@@H](O)CN2C(=O)[C@@H](NC(=O)COCCOCCOCCOCC(=O)NCCOCCOCCNC(=O)c2ccc3c(c2)c2cn(C)nc2n3-c2ccc(C(F)(F)F)cc2)C(C)(C)C)cc1` [Compound 3, N-[(2S)-1-[(2S,4R)-4-hydroxy-2-({[4-(4-methyl-1,3-thiazol-5-yl)phenyl]methyl}carbamoyl)pyrrolidin-1-yl]-3,3-dimethyl-1-oxobutan-2-yl]-N′-(2-{2-[2-({2-methyl-8-[4-(trifluoromethyl)phenyl]-2H,8H-pyrazolo[3,4-b]indol-5-yl}formamido)ethoxy]ethoxy}ethyl)-3,6,9,12-tetraoxatetradecanediamide]: the pKd on hsTEAD1 (209-426) [1] is 6.49. The ΔTm at 100 µM on hsTEAD4 (217-424) is 0.7 °C; at hsTEAD1 (209-426) [2] it was 3.4 °C. Moreover, the values for the DC50 on TEAD1 in NCI-H226 cells (setting [3]) and at TEAD1 in NCI-H226 cells (setting [4]) were 3000 nM and 10000 nM, respectively.
With `Cc1ncsc1-c1ccc(CNC(=O)[C@@H]2C[C@@H](O)CN2C(=O)[C@@H](NC(=O)CCCCCC(=O)NCCOCCOCCNC(=O)c2ccc3c(c2)c2cn(C)nc2n3-c2ccc(C(F)(F)F)cc2)C(C)(C)C)cc1` [Compound 4, N-[(2S)-1-[(2S,4R)-4-hydroxy-2-({[4-(4-methyl-1,3-thiazol-5-yl)phenyl]methyl}carbamoyl)pyrrolidin-1-yl]-3,3-dimethyl-1-oxobutan-2-yl]-N′-(2-{2-[2-({2-methyl-8-[4-(trifluoromethyl)phenyl]-2H,8H-pyrazolo[3,4-b]indol-5-yl}formamido)ethoxy]ethoxy}ethyl) heptanediamide], the pKd on hsTEAD1 (209-426) [1] was 6.49. Further, the DC50 at TEAD1 in SK-HEP1 cells (16 h incubation, read-out: DC50 SK-HEP1 16 h) was 2000 nM; on TEAD1 in SK-HEP1 cells (setting [5]), 2000 nM; at TEAD1 in SK-HEP1 cells (setting [6]), 100 to 1000 nM; at TEAD1 in NCI-H226 cells (setting [3]), 700 nM; on TEAD1 in NCI-H226 cells (setting [4]) it was 900 nM; at TEAD1 in NCI-H226 cells (setting [7]), 1000 to 3000 nM. Moreover, the ΔTm at 100 µM on hsTEAD4 (217-424) came out at 0 °C; on hsTEAD1 (209-426) [2], 2.9 °C; on hsTEAD3 (216-435), 0.6 °C; on hsTEAD2 (217-447), 1 °C.
`Cn1cc2c3cc(C(=O)NCCOCCOCCNC(=O)COc4cccc5c4C(=O)N(C4CCC(=O)NC4=O)C5=O)ccc3n(-c3ccc(C(F)(F)F)cc3)c2n1` (stereo not shown) [Compound 5, 2-{[2-(2,6-dioxopiperidin-3-yl)-1,3-dioxo-2,3-dihydro-1H-isoindol-4-yl]oxy}-N-(2-{2-[2-({2-methyl-8-[4-(trifluoromethyl)phenyl]-2H,8H-pyrazolo[3,4-b]indol-5-yl}formamido)ethoxy]ethoxy}ethyl)acetamide]: at hsTEAD1 (209-426) [1], the pKd is 5.72. Also, the figures for the DC50 on TEAD1 in SK-HEP1 cells (setting [5]), at TEAD1 in NCI-H226 cells (setting [4]) and at TEAD1 in NCI-H226 cells (setting [7]) were 30000 nM, 20000 nM and 9000 to 30000 nM, respectively. The ΔTm at 100 µM on hsTEAD4 (217-424) is 2.8 °C; at hsTEAD1 (209-426) [2], 3.9 °C; on hsTEAD3 (216-435) it was 0.9 °C; on hsTEAD2 (217-447), -0.1 °C.
For the molecule `Cn1cc2c3cc(C(=O)NCCOCCOCCNC(=O)CCCCCCNc4cccc5c4C(=O)N(C4CCC(=O)NC4=O)C5=O)ccc3n(-c3ccc(C(F)(F)F)cc3)c2n1` (stereo not shown) [Compound 6, 7-{[2-(2,6-dioxopiperidin-3-yl)-1,3-dioxo-2,3-dihydro-1H-isoindol-4-yl]amino}-N-(2-{2-[2-({2-methyl-8-[4-(trifluoromethyl)phenyl]-2H,8H-pyrazolo[3,4-b]indol-5-yl}formamido)ethoxy]ethoxy}ethyl) heptanamide], on hsTEAD1 (209-426) [1], the pKd was 5.85. For the same molecule, the ΔTm at 100 µM is 1.4 °C on hsTEAD4 (217-424) and -1.1 °C at hsTEAD1 (209-426) [2]. For the same molecule, at TEAD1 in NCI-H226 cells (setting [7]), the DC50 was 100 to 1000 nM.
Turning to `Cc1ncsc1-c1ccc(CNC(=O)[C@H]2C[C@H](O)CN2C(=O)[C@H](NC(=O)COCCOCCOCCOCCOCCNC(=O)c2ccc3c(c2)c2cn(C)nc2n3-c2ccc(C(F)(F)F)cc2)C(C)(C)C)cc1` [Compound 11, (2R,4S)-1-[(2R)-3,3-dimethyl-2-[17-({2-methyl-8-[4-(trifluoromethyl)phenyl]-2H,8H-pyrazolo[3,4-b]indol-5-yl}formamido)-3,6,9,12,15-pentaoxaheptadecanamido]butanoyl]-4-hydroxy-N-{[4-(4-methyl-1,3-thiazol-5-yl)phenyl]methyl}pyrrolidine-2-carboxamide], the DC50 at TEAD1 in SK-HEP1 cells (setting [6]) and on TEAD1 in NCI-H226 cells (setting [7]) was 100 to 1000 nM throughout. The ΔTm at 100 µM was -0.2 °C at hsTEAD4 (217-424), 4.5 °C on hsTEAD1 (209-426) [2], 1.3 °C at hsTEAD3 (216-435) and 0.3 °C on hsTEAD2 (217-447).

Usually pKd stands for the negative decadic logarithm of the Kd, by convention in mol/L. In general, ΔTm refers to the change in melting temperature against a reference sample. What is called DC50 is the concentration at which degradation of the target reaches its halfway point.
